The structures appear in SMILES notation. Activity calls are given as the source filed them. The rule behind the calls is not given here.

Among the data in ChEMBL document CHEMBL1158222, “Antiinflammatory C-glucosyl chromone from Aloe barbadensis” (1996) are Activity values, retold here.

Experiment [1] is filed under the species Mus musculus. In words: Reduction in thymus weight in BALB/c mouse at 200 ug/ear. It counts as functional. Details: scale not given: the % may be the effect or the level left.
For experiment [2], the species on record is Mus musculus. In words: Antiinflammatory activity against croton oil-induced ear inflammation in BALB/c mouse at 200 ug/ear after 6 to 24 hrs. The experiment is classed as functional, organism-based.
The species named for experiment [3] is Mus musculus. In words: Reduction in thymus weight in BALB/c mouse at 400 ug/ear. The experiment is classed as functional, organism-based.

In the experiment listed under Mus musculus [1], `C[C@]12CCC(=O)C=C1CC[C@@H]1[C@@H]2[C@@H](O)C[C@@]2(C)[C@H]1CC[C@]2(O)C(=O)CO` [HYDROCORTISONE] returned an Activity of 50%. Also, the result in the experiment listed under Mus musculus [2] was Active.

As for `COc1cc(C)c2c(=O)cc(C[C@@H](C)O)oc2c1[C@@H]1O[C@H](CO)[C@@H](O)[C@H](O)[C@H]1OC(=O)/C=C/c1ccccc1`, in the experiment listed under Mus musculus [3], the outcome was inactive. Besides, in the experiment filed under Mus musculus [2], the result was Active.
